How the values were obtained:
Format in all cases: biochemical
MMP-7 = molecular target: T1, MMP-7 (Homo sapiens, UniProt P09237); assay: In vitro MMP-7 inhibition test
T1 construct: purchased R&D Systems 907-MP
T1 sequence (P09237 95-267): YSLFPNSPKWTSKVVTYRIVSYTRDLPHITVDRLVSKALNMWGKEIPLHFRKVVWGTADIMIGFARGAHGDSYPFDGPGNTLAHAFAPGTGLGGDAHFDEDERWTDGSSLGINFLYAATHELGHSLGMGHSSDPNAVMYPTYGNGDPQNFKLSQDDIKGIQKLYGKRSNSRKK
Excerpt: (§1) The MMP-mediated amidolytic cleavage of a suitable peptide substrate leads to an increase in fluorescent light here too. The signal intensity of the fluorescent light is directly proportional to the enzyme activity. The active concentration of a test compound at which half the enzyme is inhibited (50% signal intensity of the fluorescent light) is reported as the IC50 value.
Recombinant MMP-7 (from R&D Systems, 907-MP) is chemically activated in accordance with the manufacturer's instructions using APMA. 1 μl of the test compound to be analysed (as a solution in DMSO, suitable concentrations, for example, 1 nM to 30 μM) is pipetted into 24 μl of activated enzyme (final concentration, for example, 0.5 nM) in reaction buffer (50 mM Tris/HCl pH 7.5, 10 mM CaCl2, 150 mM NaCl, 0.05% Brij®-35) in a white 384-hole microtiter plate (MTP). The enzymatic reaction is started by adding the intramolecularly quenched Mca-Pro-Leu-Gly-Leu-Dpa(Dnp)-Ala-Arg-NH2 substrate (final concentration, for example, 10 μM; R&D Systems, ES-001), so as to result in a total test volume of […] The course of the MMP-7 reaction is measured by measuring the fluorescence intensity (excitation 320 nm, emission 410 nm) over a suitable period of time (for example over 120 min at a temperature of 32° C.).

MMP-8 = molecular target: T2, MMP-8 (Homo sapiens, UniProt P22894); assay: In vitro MMP-8 inhibition test
T2 construct: purchased R&D Systems 908-MP
T2 sequence (P22894 101-467): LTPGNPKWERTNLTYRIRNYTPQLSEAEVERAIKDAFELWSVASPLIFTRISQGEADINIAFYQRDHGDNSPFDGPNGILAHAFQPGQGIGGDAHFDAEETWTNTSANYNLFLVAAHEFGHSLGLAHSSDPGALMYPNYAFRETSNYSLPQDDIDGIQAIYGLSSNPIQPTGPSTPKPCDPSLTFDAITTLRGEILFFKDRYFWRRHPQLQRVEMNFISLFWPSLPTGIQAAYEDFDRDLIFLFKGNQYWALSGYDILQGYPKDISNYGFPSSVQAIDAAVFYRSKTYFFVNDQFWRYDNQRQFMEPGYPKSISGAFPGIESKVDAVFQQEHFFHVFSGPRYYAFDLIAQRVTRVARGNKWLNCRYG
Excerpt: as §1
(§2) Recombinant MMP-8 (from R&D Systems, 908-MP) is chemically activated in accordance with the manufacturer's instructions using APMA. 1 μl of the test compound to be analysed (as a solution in DMSO, suitable concentrations, for example, 1 nM to 30 μM) is pipetted into 24 μl of activated enzyme (final concentration, for example, 0.5 nM) in reaction buffer (50 mM Tris/HCl pH 7.5, 10 mM CaCl2, 150 mM NaCl, 0.05% Brij®-35) in a white 384-hole microtiter plate (MTP). The enzymatic reaction is started by adding the intramolecularly quenched Mca-Pro-Leu-Gly-Leu-Dpa(Dnp)-Ala-Arg-NH2 substrate (final concentration, for example, 10 μM; R&D Systems, ES-001), so as to result in a total test volume of 50 μl. The course of the MMP-8 reaction is measured by measuring the fluorescence intensity (excitation 320 nm, emission 410 nm) over a suitable period of time (for example over 120 min at a temperature of 32° C.).

MMP-9 = molecular target: T3, MMP-9 (Homo sapiens, UniProt P14780); assay: In vitro MMP-9 inhibition test
T3 construct: purchased R&D Systems 911-MP
T3 sequence (P14780 107-707 limits assumed): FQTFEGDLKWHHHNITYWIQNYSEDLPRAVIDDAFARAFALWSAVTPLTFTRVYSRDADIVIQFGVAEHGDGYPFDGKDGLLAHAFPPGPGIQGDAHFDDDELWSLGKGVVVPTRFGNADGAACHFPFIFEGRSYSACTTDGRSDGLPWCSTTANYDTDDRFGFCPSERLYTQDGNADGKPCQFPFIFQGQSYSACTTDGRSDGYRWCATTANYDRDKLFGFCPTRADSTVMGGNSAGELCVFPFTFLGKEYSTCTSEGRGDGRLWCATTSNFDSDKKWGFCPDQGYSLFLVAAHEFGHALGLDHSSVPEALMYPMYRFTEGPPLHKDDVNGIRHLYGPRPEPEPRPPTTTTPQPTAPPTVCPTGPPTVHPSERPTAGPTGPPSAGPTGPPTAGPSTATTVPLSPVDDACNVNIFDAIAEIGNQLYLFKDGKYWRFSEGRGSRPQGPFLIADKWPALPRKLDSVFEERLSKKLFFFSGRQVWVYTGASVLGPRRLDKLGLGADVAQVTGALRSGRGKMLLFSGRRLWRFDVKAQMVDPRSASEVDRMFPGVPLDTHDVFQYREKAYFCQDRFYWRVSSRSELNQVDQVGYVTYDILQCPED
Excerpt: as §1
as §2, with “MMP-9” for “MMP-8”, “911-MP)” for “908-MP)”, “0.1” for “0.5”

MMP-14 = molecular target: T4, MMP-14 (Homo sapiens, UniProt P50281); assay: In vitro MMP-14 inhibition test
T4 construct: purchased R&D Systems 918-MP
Excerpt: as §1
Recombinant MMP-14 (from R&D Systems, 918-MP) is enzymatically activated in accordance with the manufacturer's instructions using recombinant furin (from R&D Systems, 1503-SE). 1 μl of the test compound to be analysed (as a solution in DMSO, suitable concentrations e.g. 1 nM to 30 μM) is pipetted into 24 μl of activated enzyme (final concentration e.g. 0.5 nM) in reaction buffer (50 mM Tris/HCl pH 7.5, 10 mM CaCl2, 150 mM NaCl, 0.05% Brij®-35) in a white 384-hole microtiter plate (MTP). The enzymatic reaction is started by adding the intramolecularly quenched Mca-Lys-Pro-Leu-Gly-Leu-Dpa(Dnp)-Ala-Arg-NH2 substrate (final concentration, for example, 5 μM; R&D Systems, ES-010), so as to result in a total test volume of 50 The course of the MMP-14 reaction is measured by measuring the fluorescence intensity (excitation 320 nm, emission 410 nm) over a suitable period of time (for example over 120 min at a temperature of 32° C.).

IC50 (MMP-7)	IC50 (MMP-8)	IC50 (MMP-9)	IC50 (MMP-14)	Compound
1100 nM	2.5 nM	4.7 nM	24 nM	O=C(O)[C@H]1[C@H](Cn2nnc3ccccc3c2=O)CC[C@@H]1C(=O)c1ccc(OCc2ccc(F)cc2)cc1 (racemic) [Example 1, (+/−)-(1RS,2RS,5SR)-2-{4-[(4-Fluorobenzyl)oxy]benzoyl}-5-[(4-oxo-1,2,3-benzotriazin-3(4H)-yl)methyl]cyclopentanecarboxylic acid]
5300 nM	440 nM	480 nM	480 nM	O=C(O)[C@H]1[C@H](Cn2nnc3ccccc3c2=O)CC[C@@H]1C(=O)c1ccc(OCc2cccc(Cl)c2)cc1 (racemic) [Example 2, (+/−)-(1RS,2RS,5SR)-2-{4-[(3-Chlorobenzyl)oxy]benzoyl}-5-[(4-oxo-1,2,3-benzotriazin-3(4H)-yl)methyl]cyclopentanecarboxylic acid]
4900 nM	260 nM	900 nM	700 nM	O=C(O)[C@H]1[C@H](Cn2nnc3ccccc3c2=O)CC[C@@H]1C(=O)c1ccc(OCc2ccc(Cl)c(Cl)c2)cc1 (racemic) [Example 3, (+/−)-(1RS,2RS,5SR)-2-{4-[(3,4-Dichlorobenzyl)oxy]benzoyl}-5-[(4-oxo-1,2,3-benzotriazin-3(4H)-yl)methyl]cyclopentanecarboxylic acid]
2200 nM	14 nM	130 nM	33 nM	O=C(O)[C@H]1[C@H](Cn2nnc3ccccc3c2=O)CC[C@@H]1C(=O)c1ccc(OCC2CCCC2)cc1 (racemic) [Example 4, (+/−)-(1RS,2RS,5SR)-2-[4-(Cyclopentylmethoxy)benzoyl]-5-[(4-oxo-1,2,3-benzotriazin-3(4H)-yl)methyl]cyclopentanecarboxylic acid]
2400 nM	250 nM	960 nM	620 nM	O=C(O)[C@H]1[C@H](Cn2nnc3ccccc3c2=O)CC[C@@H]1C(=O)c1ccc(OCCC2CCCCC2)cc1 (racemic) [Example 5, (+/−)-(1RS,2RS,5SR)-2-[4-(2-Cyclohexylethoxy)benzoyl]-5-[(4-oxo-1,2,3-benzotriazin-3(4H)-yl)methyl]cyclopentanecarboxylic acid]
87 nM	3.2 nM	18 nM	150 nM	O=C(O)[C@H]1[C@H](Cn2nnc3ccc(C(F)(F)F)cc3c2=O)CC[C@@H]1C(=O)c1ccc(OCc2ccccc2)cc1 (racemic) [Example 11, (+/−)-(1RS,2RS,5SR)-2-[4-(Benzyloxy)benzoyl]-5-{[4-oxo-6-(trifluoromethyl)-1,2,3-benzotriazin-3(4H)-yl]methyl}cyclopentanecarboxylic acid]
160 nM	0.67 nM	5.9 nM	78 nM	O=C(O)[C@H]1[C@H](Cn2nnc3ccc(C(F)(F)F)cc3c2=O)CC[C@@H]1C(=O)c1ccc(OCc2ccc(F)cc2)cc1 (racemic) [Example 12, (+/−)-(1RS,2RS,5SR)-2-{4-[(4-Fluorobenzyl)oxy]benzoyl}-5-{[4-oxo-6-(trifluoromethyl)-1,2,3-benzotriazin-3(4H)-yl]methyl}cyclopentanecarboxylic acid]
120 nM	26 nM	230 nM	180 nM	Cc1cccc(COc2ccc(C(=O)[C@H]3CC[C@@H](Cn4nnc5ccc(C(F)(F)F)cc5c4=O)[C@@H]3C(=O)O)cc2)c1 (racemic) [Example 15, (+/−)-(1RS,2RS,5SR)-2-{4-[(3-Methylbenzyl)oxy]benzoyl}-5-{[4-oxo-6-(trifluoromethyl)-1,2,3-benzotriazin-3(4H)-yl]methyl}cyclopentanecarboxylic acid]
910 nM	61 nM	940 nM	1000 nM	O=C(O)[C@H]1[C@H](Cn2nnc3ccc(C(F)(F)F)cc3c2=O)CC[C@@H]1C(=O)c1ccc(OCc2cccc(C(F)(F)F)c2)cc1 (racemic) [Example 18, (+/−)-(1RS,2SR,5RS)-2-{[4-Oxo-6-(trifluoromethyl)-1,2,3-benzotriazin-3(4H)-yl]methyl}-5-(4-{[3-(trifluoromethyl)benzyl]oxy}benzoyl)cyclopentanecarboxylic acid]

Reference: patent US20170022171A1, “2,5-DISUBSTITUTED CYCLOPENTANECARBOXYLIC ACIDS AND THEIR USE” (Bayer Pharma Aktiengesellschaft, priority 2014, published 2017)
